According to US10105437B2, “Epitopes related to coeliac disease” (BTG International Limited, priority 2004, dated 2018):

Tested on: PBMC from HLA-DQ2+ coeliac subjects
Assay: Interferon gamma ELISPOT, second round wheat gliadin and glutenin 16mer library
Assay type: cell-based, human
Conditions: 16mers pre-treated with transglutaminase, 18 or 28 subjects; for subjects with >70% of maximal peptide-specific response: normalized to individual's maximal response
Description: 12mer peptides were then identified in which each potential deamidation site could be in position 4, 6 or 7 in the 9mer located within HLA-DQ2 binding groove (HLA-DQ2 anchors at these positions show a preference for glutamate). Candidate 12mer core epitope sequences were then flanked with glycine followed by the N-terminal residue present in the parent gliadin polypeptide and at the C-terminal by the C-terminal residue present in the parent gliadin polypeptide followed by glycine (i.e. GXXXXXXXQXXXXXXG (SEQ ID NO: 1936)). […]
IFNγ ELISpot assays (Mabtech, Sweden) were performed in 96-well plates (MAIP S-45, Millipore) in which each well contained 25 mcl of peptide solution and 100 mcl of PBMC (2-8×10^5/well) in RPMI containing 10% heat inactivated human AB serum. After development and drying, IFNγ ELISpot plates were assessed using the MAIP automated ELISpot plate counter. Data was then analysed according to a novel algorithm (Expectation Maximization: EM) to define and quantify interferon-gamma responses to 9mer sequences contained within the peptide library (see FIG. 3 and below). 9mer peptides were then rationalised according to an algorithm that assumes redundancy in T-cell recognition, the “IterativeCluster” algorithm (see FIG. 4 and below), by allowing groups of amino acids with similar chemical properties at any one position in the 9mer, or for glutamate to replace glutamine at any position (assuming deamidation may have occurred).
All 2nd round 16mer peptides were assessed in at least 18 subjects. […] All 16mers identified for the second round Oxford library also fulfilled the selection criteria for the Melbourne second round library.
The second round peptide library data was analysed according to the “dominance” of peptide responses in the interferon gamma ELISPOT in individual subjects i.e. the percent response of an individual's PBMC to a specific peptide normalized against that individual's maximal peptide-induced response. Sequences of peptides that stimulated at least 40% of the maximal peptide-specific response in at least one subject are shown in Table 1 below. The dataset supports the consistency and “dominance” of peptides conforming to the sequences identified using the first round 20mer peptide library using the Expectation Maximization (EM) algorithm described above.

Row | Substance | subjects with 10-40% of maximal peptide-specific response | subjects with 40-70% of maximal peptide-specific response | subjects with <10% of maximal peptide-specific response | subjects with >70% of maximal peptide-specific response
1 | G-LQPFPQPQLPYLQP-G: wheat 16mer, second round library (GLQPFPQPQLPYLQPG; Description of Artificial Sequence: Synthetic gluten peptide) | 12/28 | 1/28 | 14/28 | 1/28
2 | G-QQPFPQPQQPFSQQ-G: wheat 16mer, second round library | 8/28 | 7/28 | 9/28 | 4/28
3 | G-IQVDPSGQVQWPQQ-G: wheat 16mer, second round library (GMQADPSGQVQWPQQG; Description of Artificial Sequence: Synthetic gluten peptide) | Nil | Nil | 17/18 | 1/18
4 | G-QPFPLQPQQPFPQQ-G: wheat 16mer, second round library (GQPFPWQPQQPFPQQG; Description of Artificial Sequence: Synthetic gluten peptide) | 7/28 | 2/28 | 19/28 | Nil
5 | G-FPQQPQQQFPQPQQ-G: wheat 16mer, second round library (GQQPFPQPQQQFPQPG; Description of Artificial Sequence: Synthetic gluten peptide) | Nil | 1/28 | 27/28 | Nil
6 | G-QVSFQQPQQQYPSP-G: wheat 16mer, second round library | 4/28 | 2/28 | 22/28 | Nil
7 | VAHAIIMHQQQQQQQE [wheat 16mer, second round library] | 2/28 | 1/28 | 25/28 | Nil
8 | QQGYYPISPQQLGQGQ [wheat 16mer, second round library] | Nil | 1/18 | Nil | Nil
9 | GQGQSGYYPTSPQQSG (QQGYYPTSPQQSGQGQ; Description of Artificial Sequence: Synthetic gluten peptide) [wheat 16mer, second round library] | 2/18 | Nil | 15/18 | 1/18
10 | QGQPGYYPTSPQQIGQ [wheat 16mer, second round library] | 1/18 | 1/18 | 15/18 | 1/18
11 | GQVVNNHGQTVFNDIG [wheat 16mer, second round library] | 4/18 | 1/18 |  | Nil
12 | LQQQCSPVAMPQRLAR [wheat 16mer, second round library] | 11/28 | 1/28 | 15/28 | 1/28
13 | G-QQQFSQPQQQFPQP-G: wheat 16mer, second round library | 7/28 | 5/28 | 16/28 | Nil
14 | LEAVTSIALRTLPTMC [wheat 16mer, second round library] | 1/18 | 1/18 |  | Nil
15 | QQGYYPTSPQQSGQGQ (QGQQGYYPTSPQQPPQ; Description of Artificial Sequence: Synthetic gluten peptide) [wheat 16mer, second round library] | Nil | 1/18 | 17/18 | Nil
16 | G-MQVDPSGQVQWPQQ-G: wheat 16mer, second round library (GIQVDPSGQVQWPQQG; Description of Artificial Sequence: Synthetic gluten peptide) | Nil | Nil | 17/18 | 1/18
17 | YVPPDCSTINVPYANI [wheat 16mer, second round library] | 1/18 | 1/18 | 15/18 | 1/18
18 | G-QQPQFSQQQQIPVI-G: wheat 16mer, second round library (PFPQPQQPFPW; Description of Artificial Sequence: Synthetic gluten peptide) | Nil | 1/28 | 17/18 | Nil
19 | QGQQGYYPISPQQSGQ [wheat 16mer, second round library] | 1/18 | 1/18 | 15/18 | 1/18
20 | DAIRAIIYSIVLQEQQ [wheat 16mer, second round library] | Nil | Nil | 17/18 | Nil
21 | G-QLPYPQPQLPYPQP-G: wheat 16mer, second round library (GQLPYPQPQLPYPQPG; Description of Artificial Sequence: Synthetic gluten peptide) | 3/28 | 4/28 | 3/28 | 18/28
22 | VPLYRTTTSVPFGVGT [wheat 16mer, second round library] | Nil | Nil | 17/18 | Nil
23 | G-QPFPWQPQQPFPQQ-G: wheat 16mer, second round library (GQPTPIQPQQPFPQQG; Description of Artificial Sequence: Synthetic gluten peptide) | 8/28 | 2/28 | 18/28 | Nil
24 | G-LQPFPQPQLSYSQP-G: wheat 16mer, second round library (GLQPFPQPQLSYSQPG; Description of Artificial Sequence: Synthetic gluten peptide) | 2/28 | 1/28 | 25/28 | Nil
25 | G-QQPFPQPQQPIPVQ-G: wheat 16mer, second round library | 7/28 | 5/28 | 8/28 | 8/28
26 | LALQTLPAMCNVYIPP [wheat 16mer, second round library] | Nil | Nil | 17/18 | Nil
27 | PGQGQSGYYPTSPQQS [wheat 16mer, second round library] | Nil | 1/18 | 16/18 | 1/18
